Source: patent US20230398130A1, “METHODS AND COMPOSITIONS FOR DIFFERENTIATING STEM CELLS” (Massachusetts Institute of Technology, priority 2020, published 2023)

Experiments:
ISC-enriched organoids [1] = experiment: Primary screen, 384-well 2.5-D organoid differentiation (ENR+CD, 6 days): basal lysozyme secretion (LYZ.NS); format: cell-based, murine; conditions: for Dose.FC.LYZ.NS: FC vs plate median; for Z.LYZ.NS: standard z score of FC; for Dose.FC.LYZ.NS (log 2 fold change): vs plate median; for SSMD.LYZ.NS: strictly standardized mean difference
From the text: (§1) High-throughput screening.

ISC-enriched organoids [2] = experiment: Primary screen, 384-well 2.5-D organoid differentiation (ENR+CD, 6 days): carbachol-induced lysozyme secretion (LYZ.S); format: cell-based, murine; conditions: for Dose.FC.LYZ.S: FC vs plate median; for Dose.FC.LYZ.S (log 2 fold change): vs plate median; for Z.LYZ.S: standard z score; for SSMD.LYZ.S: strictly standardized mean difference
From the text: as §1

ISC-enriched organoids [3] = experiment: Primary screen, 384-well 2.5-D organoid differentiation (ENR+CD, 6 days, Target Selective Inhibitor Library, vs whole-plate median): ATP (CellTiter-Glo 3D, CTG); conditions: for Dose.FC.CTG: FC vs plate median; for Z.CTG: standard z score of FC; for Dose.FC.CTG (log 2 fold change): vs plate median; for SSMD.CTG: strictly standardized mean difference
[4] = primary screen, dose 0.08 uM, ENR+CD 6 days
[5] = primary screen, dose 0.40 uM, ENR+CD 6 days
[6] = primary screen, dose 2.00 uM, ENR+CD 6 days
[7] = primary screen, dose 10.00 uM, ENR+CD 6 days
[8] = primary screen, 1st of the 4 dose lines of the treatment (dose not given)
[9] = primary screen, 2nd of the 4 dose lines of the treatment (dose not given)
[10] = primary screen, 3rd of the 4 dose lines of the treatment (dose not given)
[11] = primary screen, 4th of the 4 dose lines of the treatment (dose not given)

**Q.** For `CC(C)Oc1ccc(-c2cnc3c(-c4ccnc5ccccc45)cnn3c2)cc1` [DMH1], which Dose.FC.LYZ.NS (ISC-enriched organoids [1]; Dose 0.08 uM, ENR+CD, 6 days) is on record?
**A.** 0.018 log 2 fold change

**Q.** And the Z.LYZ.NS (ISC-enriched organoids [1]; Dose 0.08 uM)?
**A.** 0.155

**Q.** What about the Dose.FC.LYZ.NS (ISC-enriched organoids [1]; Dose 0.40 uM, ENR+CD, 6 days) of the same molecule?
**A.** 0.026 log 2 fold change

**Q.** What about the Z.LYZ.NS (ISC-enriched organoids [1]; Dose 0.40 uM) of the same molecule?
**A.** 0.231

**Q.** And the Dose.FC.LYZ.NS (ISC-enriched organoids [1]; Dose 2.00 uM, ENR+CD, 6 days)?
**A.** 0.014 log 2 fold change

**Q.** And the Z.LYZ.NS (ISC-enriched organoids [1]; Dose 2.00 uM)?
**A.** 0.124

**Q.** And the Dose.FC.LYZ.NS (ISC-enriched organoids [1]; Dose 10.00 uM, ENR+CD, 6 days)?
**A.** −0.075 log 2 fold change

**Q.** And the Z.LYZ.NS (ISC-enriched organoids [1]; Dose 10.00 uM)?
**A.** −0.657

**Q.** And the Dose.FC.LYZ.S (ISC-enriched organoids [2]; Dose 0.08 uM, ENR+CD, 6 days)?
**A.** 0.078 log 2 fold change

**Q.** What about the Dose.FC.LYZ.S (ISC-enriched organoids [2]; Dose 0.40 uM, ENR+CD, 6 days) of the same molecule?
**A.** 0.054 log 2 fold change

**Q.** And the Dose.FC.LYZ.S (ISC-enriched organoids [2]; Dose 2.00 uM, ENR+CD, 6 days)?
**A.** 0.035 log 2 fold change

**Q.** What about the Dose.FC.LYZ.S (ISC-enriched organoids [2]; Dose 10.00 uM, ENR+CD, 6 days) of the same molecule?
**A.** −0.092 log 2 fold change

**Q.** What about the Dose.FC.CTG (ISC-enriched organoids [3]; Dose 0.08 uM, ENR+CD, 6 days) of the same molecule?
**A.** −0.031 log 2 fold change

**Q.** What about the Z.CTG (ISC-enriched organoids [3]; Dose 0.08 uM) of the same molecule?
**A.** −0.075

**Q.** And the Dose.FC.CTG (ISC-enriched organoids [3]; Dose 0.40 uM, ENR+CD, 6 days)?
**A.** −0.079 log 2 fold change

**Q.** What about the Z.CTG (ISC-enriched organoids [3]; Dose 0.40 uM) of the same molecule?
**A.** −0.188

**Q.** And the Dose.FC.CTG (ISC-enriched organoids [3]; Dose 2.00 uM, ENR+CD, 6 days)?
**A.** −0.002 log 2 fold change

**Q.** And the Z.CTG (ISC-enriched organoids [3]; Dose 2.00 uM)?
**A.** −0.004

**Q.** What about the Dose.FC.CTG (ISC-enriched organoids [3]; Dose 10.00 uM, ENR+CD, 6 days) of the same molecule?
**A.** −0.001 log 2 fold change

**Q.** What about the Z.CTG (ISC-enriched organoids [3]; Dose 10.00 uM) of the same molecule?
**A.** −0.003

**Q.** Which results are given for `CCNC(=O)c1noc(-c2cc(C(C)C)c(O)cc2O)c1-c1ccc(CN2CCOCC2)cc1` [AUY922 (NVP-AUY922)]?
**A.** Dose.FC.LYZ.NS (ISC-enriched organoids [1]; [4]): −0.144 log 2 fold change; Z.LYZ.NS (ISC-enriched organoids [1]; primary screen, dose 0.08 uM): −1.251; Dose.FC.LYZ.NS (ISC-enriched organoids [1]; [5]): −0.154 log 2 fold change; Z.LYZ.NS (ISC-enriched organoids [1]; primary screen, dose 0.40 uM): −1.343; Dose.FC.LYZ.NS (ISC-enriched organoids [1]; [6]): −0.138 log 2 fold change; Z.LYZ.NS (ISC-enriched organoids [1]; primary screen, dose 2.00 uM): −1.200; Dose.FC.LYZ.NS (ISC-enriched organoids [1]; [7]): −0.153 log 2 fold change; Z.LYZ.NS (ISC-enriched organoids [1]; primary screen, dose 10.00 uM): −1.330; Dose.FC.LYZ.S (ISC-enriched organoids [2]; [4]): −0.209 log 2 fold change; Dose.FC.LYZ.S (ISC-enriched organoids [2]; [5]): −0.184 log 2 fold change; Dose.FC.LYZ.S (ISC-enriched organoids [2]; [6]): −0.216 log 2 fold change; Dose.FC.LYZ.S (ISC-enriched organoids [2]; [7]): −0.214 log 2 fold change; Dose.FC.CTG (ISC-enriched organoids [3]; [4]): −1.185 log 2 fold change; Z.CTG (ISC-enriched organoids [3]; primary screen, dose 0.08 uM): −2.830; Dose.FC.CTG (ISC-enriched organoids [3]; [5]): −1.343 log 2 fold change; Z.CTG (ISC-enriched organoids [3]; primary screen, dose 0.40 uM): −3.208; Dose.FC.CTG (ISC-enriched organoids [3]; [6]): −1.137 log 2 fold change; Z.CTG (ISC-enriched organoids [3]; primary screen, dose 2.00 uM): −2.715; Dose.FC.CTG (ISC-enriched organoids [3]; [7]): −1.270 log 2 fold change; Z.CTG (ISC-enriched organoids [3]; primary screen, dose 10.00 uM): −3.032

**Q.** For `COc1cc(Br)c(Nc2nc(-c3c(C)nc4ncccn34)cs2)c(Br)c1` [PTC-209], which “Z.LYZ.NS (standard z score)” value (ISC-enriched organoids [1]; Dose 0.08 uM, primary screen) is on record?
**A.** 0.294

**Q.** What about the “Dose.FC.LYZ.NS (log 2 fold change)” value (ISC-enriched organoids [1]; Dose 0.08 uM, primary screen) of the same molecule?
**A.** 0.034

**Q.** And the “Z.LYZ.NS (standard z score)” value (ISC-enriched organoids [1]; Dose 0.40 uM, primary screen)?
**A.** −0.509

**Q.** And the “Dose.FC.LYZ.NS (log 2 fold change)” value (ISC-enriched organoids [1]; Dose 0.40 uM, primary screen)?
**A.** −0.058

**Q.** What about the “Z.LYZ.NS (standard z score)” value (ISC-enriched organoids [1]; Dose 2.00 uM, primary screen) of the same molecule?
**A.** −1.753

**Q.** And the “Dose.FC.LYZ.NS (log 2 fold change)” value (ISC-enriched organoids [1]; Dose 2.00 uM, primary screen)?
**A.** −0.201

**Q.** What about the “Z.LYZ.NS (standard z score)” value (ISC-enriched organoids [1]; Dose 10.00 uM, primary screen) of the same molecule?
**A.** −1.975

**Q.** And the “Dose.FC.LYZ.NS (log 2 fold change)” value (ISC-enriched organoids [1]; Dose 10.00 uM, primary screen)?
**A.** −0.227

**Q.** And the “Dose.FC.LYZ.S (log 2 fold change)” value (ISC-enriched organoids [2]; Dose 0.08 uM, primary screen)?
**A.** 0.007

**Q.** What about the “Dose.FC.LYZ.S (log 2 fold change)” value (ISC-enriched organoids [2]; Dose 0.40 uM, primary screen) of the same molecule?
**A.** 0.045

**Q.** What about the “Dose.FC.LYZ.S (log 2 fold change)” value (ISC-enriched organoids [2]; Dose 2.00 uM, primary screen) of the same molecule?
**A.** −0.289

**Q.** And the “Dose.FC.LYZ.S (log 2 fold change)” value (ISC-enriched organoids [2]; Dose 10.00 uM, primary screen)?
**A.** −0.300

**Q.** And the “Z.CTG (standard z score)” value (ISC-enriched organoids [3]; Dose 0.08 uM, primary screen)?
**A.** −0.259

**Q.** And the “Dose.FC.CTG (log 2 fold change)” value (ISC-enriched organoids [3]; Dose 0.08 uM, primary screen)?
**A.** −0.108

**Q.** And the “Z.CTG (standard z score)” value (ISC-enriched organoids [3]; Dose 0.40 uM, primary screen)?
**A.** −0.495

**Q.** What about the “Dose.FC.CTG (log 2 fold change)” value (ISC-enriched organoids [3]; Dose 0.40 uM, primary screen) of the same molecule?
**A.** −0.207

**Q.** And the “Z.CTG (standard z score)” value (ISC-enriched organoids [3]; Dose 2.00 uM, primary screen)?
**A.** −3.397

**Q.** And the “Dose.FC.CTG (log 2 fold change)” value (ISC-enriched organoids [3]; Dose 2.00 uM, primary screen)?
**A.** −1.422

**Q.** What about the “Z.CTG (standard z score)” value (ISC-enriched organoids [3]; Dose 10.00 uM, primary screen) of the same molecule?
**A.** −3.708

**Q.** And the “Dose.FC.CTG (log 2 fold change)” value (ISC-enriched organoids [3]; Dose 10.00 uM, primary screen)?
**A.** −1.553

**Q.** Which results are given for `CC(C)C[C@H](NC(=O)CNC(=O)c1cc(Cl)ccc1Cl)B(O)O` [MLN2238]?
**A.** SSMD.LYZ.NS (ISC-enriched organoids [1]; [8]): −1.766; SSMD.LYZ.NS (ISC-enriched organoids [1]; [9]): −1.837; SSMD.LYZ.NS (ISC-enriched organoids [1]; [10]): −1.787; SSMD.LYZ.NS (ISC-enriched organoids [1]; [11]): −2.223; Z.LYZ.S (ISC-enriched organoids [2]; [8]): −2.478; Z.LYZ.S (ISC-enriched organoids [2]; [9]): −2.317; Z.LYZ.S (ISC-enriched organoids [2]; [10]): −2.280; Z.LYZ.S (ISC-enriched organoids [2]; [11]): −2.394; SSMD.LYZ.S (ISC-enriched organoids [2]; [8]): −1.588; SSMD.LYZ.S (ISC-enriched organoids [2]; [9]): −1.620; SSMD.LYZ.S (ISC-enriched organoids [2]; [10]): −1.733; SSMD.LYZ.S (ISC-enriched organoids [2]; [11]): −1.739; Z.CTG (ISC-enriched organoids [3]; Dose 0.08 uM): −3.952; Z.CTG (ISC-enriched organoids [3]; Dose 0.40 uM): −2.637; Z.CTG (ISC-enriched organoids [3]; Dose 2.00 uM): −2.944; Z.CTG (ISC-enriched organoids [3]; Dose 10.00 uM): −4.205; SSMD.CTG (ISC-enriched organoids [3]; [8]): −2.218; SSMD.CTG (ISC-enriched organoids [3]; [9]): −0.972; SSMD.CTG (ISC-enriched organoids [3]; [10]): −1.669; SSMD.CTG (ISC-enriched organoids [3]; [11]): −1.891
